How the values were obtained:
Histone deacetylase 3 = Histone deacetylase 3 (Homo sapiens, UniProt O15379); assay: Inhibition of recombinant HDAC3 (unknown origin) using Boc-Lys (acetyl)-AMC as substrate preincubated for 1 hrs followed by substrate addition and measured after 2 hrs by fluorescence based microplate reader analysis
Histone deacetylase 2 = Histone deacetylase 2 (Homo sapiens, UniProt Q92769); assay: Inhibition of recombinant HDAC2 (unknown origin) using Boc-Lys (acetyl)-AMC as substrate preincubated for 1 hrs followed by substrate addition and measured after 2 hrs by fluorescence based microplate reader analysis
Histone deacetylase 1 = Histone deacetylase 1 (Homo sapiens, UniProt Q13547); assay: Inhibition of recombinant HDAC1 (unknown origin) using Boc-Lys (acetyl)-AMC as substrate preincubated for 1 hrs followed by substrate addition and measured after 2 hrs by fluorescence based microplate reader analysis
[1] = biological target: T1, Polyamine deacetylase HDAC10 (Homo sapiens, UniProt Q969S8); assay: Inhibition of recombinant HDAC10 (unknown origin) using Ac-Gly-Ala-Lys(AMC) as substrate preincubated for 1 hrs followed by substrate addition and measured after 2 hrs by fluorescence based microplate reader analysis
T1 sequence (Q969S8 whole entry): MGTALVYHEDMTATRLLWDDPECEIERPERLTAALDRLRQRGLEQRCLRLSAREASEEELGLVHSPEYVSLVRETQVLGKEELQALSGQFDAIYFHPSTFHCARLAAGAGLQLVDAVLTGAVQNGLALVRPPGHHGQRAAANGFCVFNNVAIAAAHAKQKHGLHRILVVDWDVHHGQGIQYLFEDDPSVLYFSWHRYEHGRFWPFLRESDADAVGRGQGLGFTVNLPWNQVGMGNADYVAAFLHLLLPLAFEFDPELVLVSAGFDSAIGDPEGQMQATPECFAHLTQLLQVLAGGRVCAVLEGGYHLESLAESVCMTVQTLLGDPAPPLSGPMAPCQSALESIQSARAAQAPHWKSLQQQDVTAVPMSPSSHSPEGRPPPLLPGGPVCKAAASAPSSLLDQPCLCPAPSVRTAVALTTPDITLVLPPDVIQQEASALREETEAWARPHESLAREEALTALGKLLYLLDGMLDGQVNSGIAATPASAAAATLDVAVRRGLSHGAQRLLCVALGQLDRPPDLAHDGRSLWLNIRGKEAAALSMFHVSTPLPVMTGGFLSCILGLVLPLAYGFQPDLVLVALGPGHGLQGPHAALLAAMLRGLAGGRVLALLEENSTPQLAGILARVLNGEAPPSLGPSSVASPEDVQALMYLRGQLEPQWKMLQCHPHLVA

L02 [2] = assay: Cytotoxicity against HL7702 cells assessed as effect on cell viability at 10 uM incubated for 48 hrs by resazurin reagent based assay; assay type: toxicity; details: human, l02, 48 h
in vivo [3] = details: male, ICR, mouse, iv, 5 mg/kg
in vivo [4] = details: male, ICR, mouse, iv, 5 mg/kg; remark: listed apart in the source
J774.A1 = assay: cells; details: Mus musculus, J774.A1, 48 h
Histone deacetylase 8 = biological target: T2, Histone deacetylase 8 (Homo sapiens, UniProt Q9BY41); assay: Inhibition of recombinant HDAC8 (unknown origin) using Boc-Lys (trifluoroacetyl)AMC as substrate preincubated for 1 hrs followed by substrate addition and measured after 2 hrs by fluorescence based microplate reader analysis
T2 sequence (Q9BY41 whole entry): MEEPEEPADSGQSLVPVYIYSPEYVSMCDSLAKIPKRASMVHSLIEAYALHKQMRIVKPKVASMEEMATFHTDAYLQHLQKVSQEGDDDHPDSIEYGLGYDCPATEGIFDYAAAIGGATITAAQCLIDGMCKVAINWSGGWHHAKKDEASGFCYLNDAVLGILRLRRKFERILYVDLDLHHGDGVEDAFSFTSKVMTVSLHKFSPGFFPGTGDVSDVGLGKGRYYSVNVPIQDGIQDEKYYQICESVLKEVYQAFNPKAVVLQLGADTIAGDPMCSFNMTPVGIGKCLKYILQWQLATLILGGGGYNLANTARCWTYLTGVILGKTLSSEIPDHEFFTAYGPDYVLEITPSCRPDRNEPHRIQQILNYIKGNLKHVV

Histone deacetylase 5 = Histone deacetylase 5 (Homo sapiens, UniProt Q9UQL6); assay: Inhibition of recombinant HDAC5 (unknown origin) using Boc-Lys (trifluoroacetyl)AMC as substrate preincubated for 1 hrs followed by substrate addition and measured after 2 hrs by fluorescence based microplate reader analysis
Histone deacetylase 7 = biological target: T3, Histone deacetylase 7 (Homo sapiens, UniProt Q8WUI4); assay: Inhibition of recombinant HDAC7 (unknown origin) using Boc-Lys (trifluoroacetyl)AMC as substrate preincubated for 1 hrs followed by substrate addition and measured after 2 hrs by fluorescence based microplate reader analysis
T3 sequence (Q8WUI4 whole entry): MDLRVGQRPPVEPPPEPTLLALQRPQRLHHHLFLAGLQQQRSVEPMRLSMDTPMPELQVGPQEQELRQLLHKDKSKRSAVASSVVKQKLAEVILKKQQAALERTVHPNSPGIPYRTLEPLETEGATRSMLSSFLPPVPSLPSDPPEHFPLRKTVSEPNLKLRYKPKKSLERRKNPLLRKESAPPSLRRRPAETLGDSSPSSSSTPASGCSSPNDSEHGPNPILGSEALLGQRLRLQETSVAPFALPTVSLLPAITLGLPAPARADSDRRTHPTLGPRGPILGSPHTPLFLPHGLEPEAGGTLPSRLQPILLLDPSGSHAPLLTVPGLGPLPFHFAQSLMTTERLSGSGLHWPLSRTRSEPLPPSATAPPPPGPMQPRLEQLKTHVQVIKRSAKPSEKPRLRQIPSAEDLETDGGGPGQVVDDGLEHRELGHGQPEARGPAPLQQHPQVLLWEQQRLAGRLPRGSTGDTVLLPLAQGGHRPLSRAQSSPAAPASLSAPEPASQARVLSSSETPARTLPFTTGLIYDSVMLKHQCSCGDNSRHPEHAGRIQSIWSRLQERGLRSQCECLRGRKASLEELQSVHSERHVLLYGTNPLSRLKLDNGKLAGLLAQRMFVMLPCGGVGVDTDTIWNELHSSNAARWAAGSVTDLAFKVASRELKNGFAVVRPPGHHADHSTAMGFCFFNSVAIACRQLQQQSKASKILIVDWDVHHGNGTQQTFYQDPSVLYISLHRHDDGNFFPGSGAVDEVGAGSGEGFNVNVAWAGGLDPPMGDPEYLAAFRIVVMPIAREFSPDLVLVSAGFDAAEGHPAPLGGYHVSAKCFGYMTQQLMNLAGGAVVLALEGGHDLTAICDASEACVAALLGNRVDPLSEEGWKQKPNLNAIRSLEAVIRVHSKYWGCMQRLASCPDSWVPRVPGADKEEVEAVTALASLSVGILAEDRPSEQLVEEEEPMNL

Histone deacetylase 4 = Histone deacetylase 4 (Homo sapiens, UniProt P56524); assay: Inhibition of recombinant HDAC4 (unknown origin) using Boc-Lys (trifluoroacetyl)AMC as substrate preincubated for 1 hrs followed by substrate addition and measured after 2 hrs by fluorescence based microplate reader analysis
Histone deacetylase 11 = biological target: T4, Histone deacetylase 11 (Homo sapiens, UniProt Q96DB2); assay: Inhibition of recombinant HDAC11 (unknown origin) using ETDKacyl-Kmyr as substrate preincubated for 1 hrs followed by substrate addition and measured after 2 hrs by fluorescence based microplate reader analysis
T4 sequence (Q96DB2 whole entry): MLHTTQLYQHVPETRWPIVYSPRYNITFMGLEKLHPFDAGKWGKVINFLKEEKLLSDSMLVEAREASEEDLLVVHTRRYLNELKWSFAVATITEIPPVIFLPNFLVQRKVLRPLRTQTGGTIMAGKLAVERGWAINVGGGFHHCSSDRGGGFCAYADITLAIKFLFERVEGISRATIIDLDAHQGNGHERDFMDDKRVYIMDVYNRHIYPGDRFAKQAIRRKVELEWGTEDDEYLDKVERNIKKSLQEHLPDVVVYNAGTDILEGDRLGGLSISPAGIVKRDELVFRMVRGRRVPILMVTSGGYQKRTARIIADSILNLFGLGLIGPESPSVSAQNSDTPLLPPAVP

Histone deacetylase 9 = Histone deacetylase 9 (Homo sapiens, UniProt Q9UKV0); assay: Inhibition of recombinant HDAC9 (unknown origin) using Boc-Lys (trifluoroacetyl)AMC as substrate preincubated for 1 hrs followed by substrate addition and measured after 2 hrs by fluorescence based microplate reader analysis
L02 [5] = assay: Cytotoxicity against HL7702 cells assessed as effect on cell viability incubated for 48 hrs by resazurin reagent based assay; assay type: toxicity; details: human, l02, 48 h

Histone deacetylase 1, sequence (Q13547 whole entry): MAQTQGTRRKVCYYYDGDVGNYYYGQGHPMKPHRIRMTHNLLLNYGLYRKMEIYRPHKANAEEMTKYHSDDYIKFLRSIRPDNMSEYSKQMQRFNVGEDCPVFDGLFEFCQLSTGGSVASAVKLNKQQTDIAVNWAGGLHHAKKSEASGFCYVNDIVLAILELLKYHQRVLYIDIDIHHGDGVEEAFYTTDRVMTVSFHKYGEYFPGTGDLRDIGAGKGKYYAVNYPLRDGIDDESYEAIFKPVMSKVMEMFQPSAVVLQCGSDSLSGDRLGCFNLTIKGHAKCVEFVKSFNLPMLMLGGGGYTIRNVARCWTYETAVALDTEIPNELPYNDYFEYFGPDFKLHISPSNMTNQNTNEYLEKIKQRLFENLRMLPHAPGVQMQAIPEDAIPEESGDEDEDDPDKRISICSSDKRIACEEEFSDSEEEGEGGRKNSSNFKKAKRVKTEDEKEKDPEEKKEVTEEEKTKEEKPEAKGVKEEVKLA
Histone deacetylase 2, sequence (Q92769 whole entry): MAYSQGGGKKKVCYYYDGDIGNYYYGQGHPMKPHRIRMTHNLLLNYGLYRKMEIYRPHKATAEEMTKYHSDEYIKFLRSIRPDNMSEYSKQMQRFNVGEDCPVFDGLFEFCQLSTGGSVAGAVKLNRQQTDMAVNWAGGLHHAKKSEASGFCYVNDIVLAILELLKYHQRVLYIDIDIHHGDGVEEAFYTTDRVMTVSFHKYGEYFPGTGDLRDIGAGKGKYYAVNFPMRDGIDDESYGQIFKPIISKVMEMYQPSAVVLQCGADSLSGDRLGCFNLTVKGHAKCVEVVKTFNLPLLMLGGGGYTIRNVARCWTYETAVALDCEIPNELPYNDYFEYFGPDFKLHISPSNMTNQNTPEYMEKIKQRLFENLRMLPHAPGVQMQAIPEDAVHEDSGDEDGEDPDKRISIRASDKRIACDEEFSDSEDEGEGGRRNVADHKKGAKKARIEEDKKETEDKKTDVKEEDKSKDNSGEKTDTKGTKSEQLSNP
Histone deacetylase 3, sequence (O15379 whole entry): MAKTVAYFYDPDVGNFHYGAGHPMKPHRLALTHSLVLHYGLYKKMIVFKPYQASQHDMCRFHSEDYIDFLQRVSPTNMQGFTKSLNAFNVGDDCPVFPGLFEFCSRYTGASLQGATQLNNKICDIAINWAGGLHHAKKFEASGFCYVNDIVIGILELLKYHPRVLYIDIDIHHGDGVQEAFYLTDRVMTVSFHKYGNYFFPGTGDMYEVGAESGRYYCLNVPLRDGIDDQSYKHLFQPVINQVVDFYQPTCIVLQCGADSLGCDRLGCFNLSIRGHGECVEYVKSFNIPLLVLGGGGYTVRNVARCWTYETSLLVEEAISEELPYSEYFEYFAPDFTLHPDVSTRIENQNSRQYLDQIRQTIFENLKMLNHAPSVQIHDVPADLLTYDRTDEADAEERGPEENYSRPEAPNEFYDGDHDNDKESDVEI
Histone deacetylase 5, sequence (Q9UQL6 whole entry): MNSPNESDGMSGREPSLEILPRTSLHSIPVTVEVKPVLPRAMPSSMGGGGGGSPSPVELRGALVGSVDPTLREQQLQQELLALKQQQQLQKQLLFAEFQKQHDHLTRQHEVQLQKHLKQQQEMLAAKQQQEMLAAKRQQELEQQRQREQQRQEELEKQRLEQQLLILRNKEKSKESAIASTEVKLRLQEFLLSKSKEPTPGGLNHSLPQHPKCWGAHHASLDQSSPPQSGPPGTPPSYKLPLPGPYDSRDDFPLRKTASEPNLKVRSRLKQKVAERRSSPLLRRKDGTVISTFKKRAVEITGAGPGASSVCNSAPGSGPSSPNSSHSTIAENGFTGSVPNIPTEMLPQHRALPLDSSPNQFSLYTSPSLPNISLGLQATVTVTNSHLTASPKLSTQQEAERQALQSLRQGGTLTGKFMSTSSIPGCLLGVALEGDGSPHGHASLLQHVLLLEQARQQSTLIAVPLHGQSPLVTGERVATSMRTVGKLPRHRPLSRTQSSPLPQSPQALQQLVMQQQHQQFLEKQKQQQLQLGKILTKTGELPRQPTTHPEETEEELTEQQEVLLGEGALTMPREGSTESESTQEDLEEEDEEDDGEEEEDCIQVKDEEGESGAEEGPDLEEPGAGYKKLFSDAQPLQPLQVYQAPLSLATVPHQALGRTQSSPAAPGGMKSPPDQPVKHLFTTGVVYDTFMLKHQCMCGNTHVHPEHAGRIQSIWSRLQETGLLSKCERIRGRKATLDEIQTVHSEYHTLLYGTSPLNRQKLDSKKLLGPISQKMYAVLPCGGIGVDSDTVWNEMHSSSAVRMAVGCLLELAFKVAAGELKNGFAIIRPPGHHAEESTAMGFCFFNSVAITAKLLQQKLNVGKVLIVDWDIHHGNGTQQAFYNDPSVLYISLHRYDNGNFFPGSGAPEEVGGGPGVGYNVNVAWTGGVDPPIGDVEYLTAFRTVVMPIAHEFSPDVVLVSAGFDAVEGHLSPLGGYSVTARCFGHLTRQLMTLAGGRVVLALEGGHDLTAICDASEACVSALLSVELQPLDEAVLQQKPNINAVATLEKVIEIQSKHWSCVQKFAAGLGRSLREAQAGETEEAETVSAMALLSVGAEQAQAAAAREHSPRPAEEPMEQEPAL
Histone deacetylase 4, sequence (P56524 whole entry): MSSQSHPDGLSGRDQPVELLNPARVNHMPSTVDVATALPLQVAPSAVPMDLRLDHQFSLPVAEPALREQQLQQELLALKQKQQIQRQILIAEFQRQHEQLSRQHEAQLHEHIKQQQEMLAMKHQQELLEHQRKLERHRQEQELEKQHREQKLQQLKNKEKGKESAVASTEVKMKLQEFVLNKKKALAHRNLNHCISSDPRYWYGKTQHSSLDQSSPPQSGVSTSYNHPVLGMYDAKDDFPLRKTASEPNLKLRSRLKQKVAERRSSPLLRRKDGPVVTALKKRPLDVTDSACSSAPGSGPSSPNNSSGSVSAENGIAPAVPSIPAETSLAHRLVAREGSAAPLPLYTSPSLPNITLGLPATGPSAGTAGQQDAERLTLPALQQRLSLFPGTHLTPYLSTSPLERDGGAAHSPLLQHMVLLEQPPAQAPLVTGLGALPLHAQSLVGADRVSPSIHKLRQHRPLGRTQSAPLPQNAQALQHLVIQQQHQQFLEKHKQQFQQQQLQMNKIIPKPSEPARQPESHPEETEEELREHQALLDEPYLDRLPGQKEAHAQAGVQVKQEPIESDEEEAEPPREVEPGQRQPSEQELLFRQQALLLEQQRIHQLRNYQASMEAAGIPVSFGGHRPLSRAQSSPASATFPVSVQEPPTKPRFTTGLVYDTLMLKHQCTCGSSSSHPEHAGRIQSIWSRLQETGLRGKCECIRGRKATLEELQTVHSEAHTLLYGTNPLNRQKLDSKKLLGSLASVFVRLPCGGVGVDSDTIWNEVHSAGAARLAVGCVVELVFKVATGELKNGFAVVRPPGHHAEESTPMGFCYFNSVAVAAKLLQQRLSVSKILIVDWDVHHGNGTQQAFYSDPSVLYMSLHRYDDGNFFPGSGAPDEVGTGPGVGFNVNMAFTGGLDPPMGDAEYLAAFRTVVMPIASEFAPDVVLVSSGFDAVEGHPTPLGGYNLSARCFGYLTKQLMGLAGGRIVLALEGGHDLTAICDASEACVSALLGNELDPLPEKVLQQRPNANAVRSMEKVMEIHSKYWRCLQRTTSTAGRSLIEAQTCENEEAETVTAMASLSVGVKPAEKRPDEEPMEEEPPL
Histone deacetylase 9, sequence (Q9UKV0 whole entry): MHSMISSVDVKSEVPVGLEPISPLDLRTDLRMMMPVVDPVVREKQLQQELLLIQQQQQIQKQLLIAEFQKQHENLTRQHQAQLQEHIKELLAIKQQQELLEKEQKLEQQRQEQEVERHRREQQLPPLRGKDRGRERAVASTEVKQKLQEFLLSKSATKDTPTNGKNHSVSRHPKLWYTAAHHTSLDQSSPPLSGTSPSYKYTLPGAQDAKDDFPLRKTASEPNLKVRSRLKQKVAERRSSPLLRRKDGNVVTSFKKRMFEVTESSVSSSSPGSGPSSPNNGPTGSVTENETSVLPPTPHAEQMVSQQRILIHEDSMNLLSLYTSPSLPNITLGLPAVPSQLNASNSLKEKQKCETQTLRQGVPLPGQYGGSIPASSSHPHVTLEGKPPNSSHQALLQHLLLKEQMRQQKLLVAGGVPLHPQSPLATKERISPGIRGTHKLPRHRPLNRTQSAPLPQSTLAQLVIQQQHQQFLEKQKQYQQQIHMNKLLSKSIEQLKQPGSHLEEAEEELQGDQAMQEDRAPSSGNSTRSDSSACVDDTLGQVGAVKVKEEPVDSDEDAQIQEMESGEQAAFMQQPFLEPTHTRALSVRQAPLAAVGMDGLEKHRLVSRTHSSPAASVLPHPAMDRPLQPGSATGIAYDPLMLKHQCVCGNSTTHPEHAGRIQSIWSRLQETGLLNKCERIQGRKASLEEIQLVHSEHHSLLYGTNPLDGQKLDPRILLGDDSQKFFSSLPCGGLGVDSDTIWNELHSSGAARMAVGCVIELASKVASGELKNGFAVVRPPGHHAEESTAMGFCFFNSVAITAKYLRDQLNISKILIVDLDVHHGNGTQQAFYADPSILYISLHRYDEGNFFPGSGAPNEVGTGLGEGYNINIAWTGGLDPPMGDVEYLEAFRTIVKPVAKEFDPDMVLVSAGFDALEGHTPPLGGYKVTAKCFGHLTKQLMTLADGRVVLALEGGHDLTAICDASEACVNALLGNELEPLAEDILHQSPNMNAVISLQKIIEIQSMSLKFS

Compound | IC50 (Histone deacetylase 3) [µM] | IC50 (Histone deacetylase 2) [µM] | IC50 (Histone deacetylase 1) [µM] | other results
CCNNC(=O)c1cc(F)c(CN2c3ccccc3C=Cc3ccncc32)c(F)c1 | > 10 | > 10 | > 10 | –
CCNNC(=O)c1cc(F)c(CN2c3ccccc3C=Cc3ccccc32)cc1F | > 10 | > 10 | > 10 | –
CCNNC(=O)c1ccc(CN2c3ccccc3C=Cc3ccncc32)cc1 | – | – | – | IC50 [1]: > 10 µM; Activity (L02 [2]): Toxic; Vd at 24 h (in vivo [3]): 3.51 L/kg; clearance at 24 h (in vivo [4]): 1.84 L/h/kg; IC50 (J774.A1): 25.6 µM
O=C(NNCCF)c1ccc(CN2c3ccccc3C=Cc3ccncc32)cc1 | 6.37 | > 10 | > 10 | –
CCNNC(=O)c1cc(F)c(CN2c3ccccc3Sc3cccnc32)cc1F | > 10 | > 10 | > 10 | –
CCNNC(=O)c1cc(F)c(CN2c3ccccc3C=Cc3ccncc32)cc1F | 7.04 | > 10 | > 10 | IC50 (Histone deacetylase 8): > 10 µM; IC50 (Histone deacetylase 5): > 10 µM; IC50 [1]: > 10 µM; IC50 (Histone deacetylase 7): > 10 µM; IC50 (Histone deacetylase 4): > 10 µM; IC50 (Histone deacetylase 11): > 10 µM; IC50 (Histone deacetylase 9): > 10 µM
O=C(CCCCCCNC(=O)c1cnc(N(c2ccccc2)c2ccccc2)nc1)NO [RICOLINOSTAT] | – | – | – | Activity (L02 [5]): Toxic
CCNNC(=O)c1ccc(CN2c3ccccc3C=Cc3ccncc32)c(F)c1 | 3.75 | > 10 | 8.74 | IC50 (Histone deacetylase 8): > 10 µM; IC50 (Histone deacetylase 5): > 10 µM; IC50 [1]: > 10 µM; IC50 (Histone deacetylase 7): > 10 µM; IC50 (Histone deacetylase 4): > 10 µM; IC50 (Histone deacetylase 11): > 10 µM; IC50 (Histone deacetylase 9): 2.27 µM
CCNNC(=O)c1cc(F)c(Cn2c3ccccc3c3ccccc32)cc1F | > 10 | > 10 | > 10 | –
CCNNC(=O)c1cc(F)c(Cn2c3ccccc3c3cccnc32)cc1F | > 10 | > 10 | > 10 | –
CCNNC(=O)c1cc(F)c(CNc2cccc3cccnc23)cc1F | > 10 | > 10 | > 10 | –
CCNNC(=O)c1ccc(CN2c3ccccc3C=Cc3ccncc32)cc1F | 1.79 | > 10 | > 10 | –

Source: ChEMBL document CHEMBL6134854, “Development of Hydrazide-Based HDAC6 Selective Inhibitors for Treating NLRP3 Inflammasome-Related Diseases” (J Med Chem, 2025)
